In ChEMBL document CHEMBL3508140 (2016):

Tests used:
[1] = Mean plasma clearance of doxorubicin following intravenous doxorubicin at 60 mg.m-2 dose in cancer patients; format: ADME, organism-based; conditions: human, read-out: CLp (converted)
Albumin = Albumin (Homo sapiens, UniProt P02768); assay: Binding of doxorubicin to albumin; format: cell-free; conditions: read-out: Plasma protein binding (converted)
[2] = Renal clearance of doxorubicin following doxorubicin at 60 mg.m-2 dose in cancer patients; format: ADME, organism-based, Kidney; conditions: human, in vivo, iv, read-out: Renal clearance (converted)
[3] = Decrease in albumin due to persistent proteinuria following reference intravenous doxorubicin at 1 mg.Kg-1 per week in rat; format: toxicity, organism-based, SD, Serum; design: dose 1 mg.Kg-1, dosed compound id 2.46809e+06, dosed compound name Doxorubicin, dose level High, gender Mixed, regimen Once per week, route intravenous, sampling time 36 Week, study doses 0/0.3/0.6/1 mg.Kg-1; conditions: in vivo
in vivo [4] = conditions: female, BALB/c, mouse, heart, iv, 10 mg/kg
[5] = (§1) Urinary elimination of adriamycin following intravenous bolus adriamycin at 10 mg.Kg-1 dose in rat; format: ADME, organism-based; design: dose 10 mg.Kg-1, dosed compound id 2.46809e+06, dosed compound name Doxorubicin, route intravenous, sampling time 0-24 h; conditions: SD, urine, read-out: Compound recovery
[6] = Incidence of leukocyturia following reference intravenous doxorubicin at 1 mg.Kg-1 per week in rat; format: toxicity, organism-based, SD; design: dose 1 mg.Kg-1, dosed compound id 2.46809e+06, dosed compound name Doxorubicin, dose level High, gender Mixed, regimen Once per week, route intravenous, sampling time 36 Week, study doses 0/0.3/0.6/1 mg.Kg-1; conditions: in vivo
[7] = Detection of doxorubicin in tumor following single intravenous doxorubicin at 10 mg.Kg-1 dose in female mouse bearing colon tumor; format: ADME, organism-based, BALB/c, Neoplasm; design: dose 10 mg.Kg-1, dosed compound id 2.46809e+06, dosed compound name Doxorubicin, gender F, regimen Single, route intravenous, sampling time 48 h; conditions: in vivo
[8] = Plasma clearance of adriamycin following intravenous adriamycin at 1.27 mg.Kg-1 dose in dog; format: ADME, organism-based, Canis lupus familiaris; design: dose 1.27 mg.Kg-1, dosed compound id 2.46809e+06, dosed compound name Doxorubicin, route intravenous; conditions: Beagle, read-out: Clp
in vivo [9] = conditions: female, BALB/c, mouse, tumor, iv, 10 mg/kg
[10] = Mean AUC of doxorubicin following intravenous doxorubicin at 60 mg.m-2 dose in cancer patients; format: ADME, organism-based; conditions: human, plasma
[11] = Detection of doxorubicin in heart following single intravenous doxorubicin at 10 mg.Kg-1 dose in female mouse bearing colon tumor; format: ADME, organism-based, BALB/c; design: dose 10 mg.Kg-1, dosed compound id 2.46809e+06, dosed compound name Doxorubicin, gender F, regimen Single, route intravenous, sampling time 48 h; conditions: in vivo
in vivo [12] = conditions: female, BALB/c, mouse, plasma, iv, 10 mg/kg
[13] = Volume of distribution at steady state following doxorubicin at 60 mg.m-2 dose in patients with cancer; format: ADME, organism-based; design: dose 60 mg.m-2, dosed compound id 2.46809e+06, dosed compound name Doxorubicin; conditions: human, plasma, read-out: Vss
[14] = Decrease in leukocytes observed following reference intravenous doxorubicin at 1 mg.Kg-1 per week in rat; format: toxicity, organism-based, SD, Blood; design: dose 1 mg.Kg-1, dosed compound id 2.46809e+06, dosed compound name Doxorubicin, dose level High, gender Mixed, regimen Once per week, route intravenous, sampling time 36 Week, study doses 0/0.3/0.6/1 mg.Kg-1; conditions: in vivo
[15] = Incidence of persistent proteinuria following reference intravenous doxorubicin at 1 mg.Kg-1 per week in rat; format: toxicity, organism-based, SD; design: dose 1 mg.Kg-1, dosed compound id 2.46809e+06, dosed compound name Doxorubicin, dose level High, gender Mixed, regimen Once per week, route intravenous, sampling time 36 Week, study doses 0/0.3/0.6/1 mg.Kg-1; conditions: in vivo
[16] = AUC values (0-48 h) of doxorubicin in plasma following single intravenous doxorubicin at 10 mg.Kg-1 dose in female mouse bearing colon tumor; format: ADME, organism-based, BALB/c; design: time < 48 hr, dose 10 mg.Kg-1, dosed compound id 2.46809e+06, dosed compound name Doxorubicin, gender F, regimen Single, route intravenous, sampling time 48 h; conditions: in vivo
Homo sapiens = species: Homo sapiens; assay: Binding of doxorubicin to plasma protein of human; format: cell-free
[17] = Mortality occurred following reference intravenous doxorubicin at 1 mg.Kg-1 per week in rat; format: toxicity, organism-based, SD; design: dose 1 mg.Kg-1, dosed compound id 2.46809e+06, dosed compound name Doxorubicin, dose level High, gender Mixed, regimen Once per week, route intravenous, sampling time 17 Week, study doses 0/0.3/0.6/1 mg.Kg-1; conditions: in vivo
[18] = Volume of distribution of adriamycin following intravenous adriamycin at 1.27 mg.Kg-1 dose in dog; format: ADME, organism-based, Canis lupus familiaris; design: dose 1.27 mg.Kg-1, dosed compound id 2.46809e+06, dosed compound name Doxorubicin, route intravenous; conditions: Beagle, plasma
[19] = Detection of doxorubicin in plasma following single intravenous doxorubicin at 10 mg.Kg-1 dose in female mouse bearing colon tumor; format: ADME, organism-based, BALB/c; design: dose 10 mg.Kg-1, dosed compound id 2.46809e+06, dosed compound name Doxorubicin, gender F, regimen Single, route intravenous, sampling time 48 h; conditions: in vivo
[20] = Mean terminal half-life of doxorubicin following intravenous doxorubicin at 60 mg.m-2 dose in cancer patients; conditions: human, plasma
[21] = Increase in serum phospholipid level following reference intravenous doxorubicin at 1 mg.Kg-1 per week in rat; format: toxicity, organism-based, SD; design: dose 1 mg.Kg-1, dosed compound id 2.46809e+06, dosed compound name Doxorubicin, dose level High, gender Mixed, regimen Once per week, route intravenous, sampling time 8-22 Week, study doses 0/0.3/0.6/1 mg.Kg-1; conditions: in vivo
[22] = AUC values (0-48 h) of doxorubicin in tumor following single intravenous doxorubicin at 10 mg.Kg-1 dose in female mouse bearing colon tumor; format: ADME, organism-based, BALB/c, Neoplasm; design: time < 48 hr, dose 10 mg.Kg-1, dosed compound id 2.46809e+06, dosed compound name Doxorubicin, gender F, regimen Single, route intravenous, sampling time 48 h; conditions: in vivo
in vivo [23] = conditions: Beagle, dog, plasma, iv, 1.27 mg/kg
[24] = as §1; format: ADME, organism-based; design: dose 10 mg.Kg-1, dosed compound id 2.46809e+06, dosed compound name Doxorubicin, route intravenous, sampling time 0-60 h; conditions: SD, urine, read-out: Compound recovery
[25] = Elimination of doxorubicin following doxorubicin at 60 mg.m-2 dose in cancer patients; format: ADME, organism-based, Plasma; conditions: human, in vivo, iv
[26] = Increase in serum triglycerides level following reference intravenous doxorubicin at 1 mg.Kg-1 per week in rat; format: toxicity, organism-based, SD; design: dose 1 mg.Kg-1, dosed compound id 2.46809e+06, dosed compound name Doxorubicin, dose level High, gender Mixed, regimen Once per week, route intravenous, sampling time 8-22 Week, study doses 0/0.3/0.6/1 mg.Kg-1; conditions: in vivo
[27] = Increase in serum total cholesterol level following reference intravenous doxorubicin at 1 mg.Kg-1 per week in rat; format: toxicity, organism-based, SD; design: dose 1 mg.Kg-1, dosed compound id 2.46809e+06, dosed compound name Doxorubicin, dose level High, gender Mixed, regimen Once per week, route intravenous, sampling time 8-22 Week, study doses 0/0.3/0.6/1 mg.Kg-1; conditions: in vivo
[28] = Terminal half-life of doxorubicin following intravenous doxorubicin at 1.27 mg.Kg-1 dose in dog; format: ADME, organism-based, Canis lupus familiaris, Beagle, Plasma; design: dose 1.27 mg.Kg-1, dosed compound id 2.46809e+06, dosed compound name Doxorubicin, route intravenous; conditions: in vivo
[29] = Percentage of doxorubicin excreted unchanged in urine following doxorubicin at 60 mg.m-2 dose in cancer patients; format: ADME, organism-based; design: dose 60 mg.m-2, dosed compound id 2.46809e+06, dosed compound name Doxorubicin; conditions: human, at 60 mg/m2, read-out: Compound recovery
[30] = as §1; format: ADME, organism-based; design: dose 10 mg.Kg-1, dosed compound id 2.46809e+06, dosed compound name Doxorubicin, route intravenous, sampling time 0-6 h; conditions: SD, urine, read-out: Compound recovery
[31] = AUC values (0-48 h) of doxorubicin in heart following single intravenous doxorubicin at 10 mg.Kg-1 dose in female mouse bearing colon tumor; format: ADME, organism-based, BALB/c; design: time < 48 hr, dose 10 mg.Kg-1, dosed compound id 2.46809e+06, dosed compound name Doxorubicin, gender F, regimen Single, route intravenous, sampling time 48 h; conditions: in vivo

Albumin, sequence (P02768 whole entry): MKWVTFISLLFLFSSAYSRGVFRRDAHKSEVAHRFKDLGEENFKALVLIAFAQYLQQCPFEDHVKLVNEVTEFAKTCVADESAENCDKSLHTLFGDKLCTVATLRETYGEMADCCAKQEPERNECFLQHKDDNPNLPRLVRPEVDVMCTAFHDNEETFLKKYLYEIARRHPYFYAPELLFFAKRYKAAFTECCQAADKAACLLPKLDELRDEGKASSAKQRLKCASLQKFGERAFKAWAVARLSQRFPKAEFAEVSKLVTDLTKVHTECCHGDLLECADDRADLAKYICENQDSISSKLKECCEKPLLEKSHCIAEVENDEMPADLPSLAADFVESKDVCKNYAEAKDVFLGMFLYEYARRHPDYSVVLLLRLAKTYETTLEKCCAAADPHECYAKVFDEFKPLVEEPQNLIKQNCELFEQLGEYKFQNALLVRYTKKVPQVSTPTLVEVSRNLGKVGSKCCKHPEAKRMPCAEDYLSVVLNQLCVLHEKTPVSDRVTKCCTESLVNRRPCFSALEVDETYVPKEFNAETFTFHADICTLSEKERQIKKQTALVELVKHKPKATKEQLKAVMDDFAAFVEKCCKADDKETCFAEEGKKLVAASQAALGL

SMILES: COc1cccc2c1C(=O)c1c(O)c3c(c(O)c1C2=O)C[C@@](O)(C(=O)CO)C[C@@H]3O[C@H]1C[C@H](N)[C@H](O)[C@H](C)O1 [DOXORUBICIN]
- clearance [1]: 950 mL/min
- fraction unbound (Albumin): 0.38
- CL renal [2]: 76.7 mL/min
- ALB_CHANGE [3]: OUTCOME = Decreased
- half-life (in vivo [4]): 792 min
- dose excreted [5]: 2.77%
- Incidence [6]: OUTCOME = Observed
- Compound recovery [7]: OUTCOME = Observed
- clearance [8]: 607 mL/min
- half-life (in vivo [9]): 1930 min
- AUC [10]: 1970 ng·h/mL
- Compound recovery [11]: OUTCOME = Observed
- half-life (in vivo [12]): 2970 min
- Vd [13]: 33 L/kg
- WBC_CHANGE [14]: 45%
- Incidence [15]: OUTCOME = Observed
- AUC [16]: 204.9 nmol·min/mL
- PPB (Homo sapiens): 71%
- Mortality [17]: OUTCOME = Observed, N_AFFECTED = 9
- Vd [18]: 19.1 L/kg
- Compound recovery [19]: OUTCOME = Observed
- half-life [20]: 2880 min
- PHOSLPD_CHANGE [21]: OUTCOME = Increased
- AUC [22]: 8700 nmol·min/g
- half-life (in vivo [23]): 5.4 min
- dose excreted [24]: 3.33%
- Elimination [25]: OUTCOME = Observed
- TRIG_CHANGE [26]: OUTCOME = Increased
- CHOL_CHANGE [27]: OUTCOME = Increased
- t1/2 [28]: VALUE = Shorter than doxorubicin
- dose excreted at 7 Day [29]: 9%
- dose excreted [30]: 2.08%
- AUC [31]: 14100 nmol·min/g
